Data published in patent US20040234555A1, “Swine growth promoters and method of promoting swine growth” (priority 2001, published 2004).

Legend:
[1] = tested on: Large Yorkshire piglets; assay: Growth and blood examination of piglets after a single administration on the third day after birth (Example 1)
Description: Thereafter, usual management was carried out, feeding was started on the 14th day after birth, and body weights were measured and blood samples were collected on the 21st day after birth to carry out inspections in accordance with usual way. Also, body weights were measured at the time of shipping after about 6 months, and the number of days reaching a shipping body weight criterion of 110 kg (required days for 110 kg) was calculated. The tests were carried out using 12 animals in each plot, and the values were calculated as average values by excluding pigs which came off the test due to a disease and the like.
DG (daily gain; kg/day)=shipping body weight (kg)÷raised days (day)
Required days for 110 kg (day)=110 (kg)÷DG (kg/day)

[2] = tested on: piglets; assay: Growth of piglets given feed with the additive from the 14th day after birth (Example 2); format: in vivo, pig
Description: Using piglets born during a period of from October through November in 2000, feeding was carried out on the 14th day after their birth. […] In this case, the test was carried out using 10 head in each plot, and the average values were calculated.

[3] = 21st day after birth, treatment on 3rd day after birth

## Cl.NCC(=O)CCC(=O)O [ALA, 5-aminolevulinic acid hydrochloride]
[1]; 21st day after birth
  Body weight: relative value to 100 at the commencement of the test on the 3rd day after birth: 233%
[1]; [3]
  B12: vitamin B12 concentration in serum: 240 pg/mL
  Fe: serum iron concentration in serum: 44 µg/dL
  Hb: hemoglobin concentration in whole blood sample: 8.5 g/dL
  Ht: blood cell volume ratio in whole blood sample: 30.5%
  TP: total serum protein concentration in serum: 5.8 g/dL
[1]; calculated from shipping body weight after about 6 months, 110 kg ÷ daily gain
  Required days for 110 kg (number of days reaching shipping body weight criterion of 110 kg): 183 days
[1]; examination about 6 months after birth, 12 animals per plot
  Frequency of disease onset: 0
[1]; in and after the 21st day
  Pigs which came off the test system due to a disease: diseases were not found
[1]; until the 21st day after birth
  Pigs which came off the test plots due to a disease and the like: not found
[2]; 10 mg 5-aminolevulinic acid hydrochloride per 1 kg feed, with or without 10 mg ferric ammonium citrate per 1 kg feed, 10 head per plot
  Required days for 110 kg: 172
[2]; feed additive from 14th day after birth
  Growth (in words): markedly enhanced
